“Also recorded” adds a separate entry of the source.
Molecular target: T1, GluD2-A654T-D535E (Rattus norvegicus, UniProt Q63226, A654T/D535E)
T1 construct: expressed in transfected cells; host or cells: Xenopus laevis oocytes injected with cRNA
T1 sequence (Q63226 24-1007 D535E/A654T): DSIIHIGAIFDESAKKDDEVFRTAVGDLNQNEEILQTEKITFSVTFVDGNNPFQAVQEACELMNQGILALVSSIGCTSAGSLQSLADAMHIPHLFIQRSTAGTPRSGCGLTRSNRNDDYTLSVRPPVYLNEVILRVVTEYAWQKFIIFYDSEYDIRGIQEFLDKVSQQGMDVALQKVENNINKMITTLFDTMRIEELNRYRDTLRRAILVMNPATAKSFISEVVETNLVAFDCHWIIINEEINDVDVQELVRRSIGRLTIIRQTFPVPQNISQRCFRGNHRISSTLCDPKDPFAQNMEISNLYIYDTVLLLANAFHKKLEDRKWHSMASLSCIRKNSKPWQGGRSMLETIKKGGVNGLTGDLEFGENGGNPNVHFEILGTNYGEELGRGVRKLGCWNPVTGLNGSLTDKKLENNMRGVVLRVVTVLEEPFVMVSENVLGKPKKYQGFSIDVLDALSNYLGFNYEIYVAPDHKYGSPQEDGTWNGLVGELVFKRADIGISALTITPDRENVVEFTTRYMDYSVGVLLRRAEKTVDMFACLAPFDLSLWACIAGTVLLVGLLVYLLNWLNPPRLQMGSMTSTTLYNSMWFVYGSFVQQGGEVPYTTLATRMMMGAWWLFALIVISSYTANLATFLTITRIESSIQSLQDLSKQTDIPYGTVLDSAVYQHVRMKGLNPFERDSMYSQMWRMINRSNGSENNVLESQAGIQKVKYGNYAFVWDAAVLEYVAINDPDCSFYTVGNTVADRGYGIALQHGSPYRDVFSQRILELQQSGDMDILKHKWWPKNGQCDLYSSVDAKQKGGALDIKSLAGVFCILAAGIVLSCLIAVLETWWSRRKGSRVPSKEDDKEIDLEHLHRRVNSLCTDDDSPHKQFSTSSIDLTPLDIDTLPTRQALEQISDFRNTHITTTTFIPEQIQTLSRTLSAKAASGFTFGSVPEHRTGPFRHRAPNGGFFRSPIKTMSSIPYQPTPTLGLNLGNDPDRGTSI
Assay: TEVC of constitutive current, Xenopus oocytes expressing GluD2-A654T-D535E
Type: cell-based
Conditions: for Effect on constitutive current, in words: compared to GluD2-A654T
Text: Human GluD1 (GRID1) and rat GluD2 (Grid2) cDNAs were introduced into the pGEM-HE and pCI-neo vectors. GRID1 (NM_017551.3) gene fragments were synthesized by Integrated DNA Technologies and cloned into empty vectors using InFusion cloning (Clontech). […] However, rat and human GluD2-encoding cDNA are identical in the M3 domain in which many of the variants we studied reside (see Supplementary Fig. S1). The full open reading frame for both constructs were verified by Sanger sequencing (Eurofins) and the full plasmid sequence was verified by whole plasmid sequencing (plasmidsaurus). Variant cDNA changes identified in patients were introduced into the cloned human GRID1 (NM_017551.3) in pGEM-HE and cloned rat Grid2 cDNA sequence (NM_024379.1) in pGEM-HE vector using Quikchange Lightning (Agilent) protocol according to the manufacturer’s instructions. Vectors were linearized and cRNA was synthesized using T7 RNA mMESSAGE kit (Invitrogen).
Xenopus laevis oocytes were prepared from ovaries purchased from Xenopus 1 (Dexter, MI) as previously described, [68] and incubated at 16°C in culture Barth’s solution (in mM) 88 NaCl, 2.4 NaHCO3, 1 KCl, 0.33 Ca(NO3)2, 0.41 CaCl2, 0.82 MgSO4, 10 HEPES, pH 7.4 with NaOH, supplemented with 1 U/ml penicillin and 1 μg/ml streptomycin. Oocytes were injected with approximately 5–40 ng RNA per oocyte and then incubated at 16–19°C for 1–3 days in culture Barth’s solution. […] Two-electrode voltage clamp (TEVC) recordings were performed as previously described. Unless otherwise specified, extracellular solution contained (in mM) 90 NaCl, 3 KCl, 0.5 BaCl2, 0.01 EDTA, 10 HEPES, and was brought to pH 7.4 with NaOH. The oocytes were placed in a dual track recording chamber and gravity perfused with solution exchange controlled via a computer-driven 8-valve positioner (Digital MVP Valve). […] Recording electrodes were filled with 0.3 M KCl, and currents were recorded with membrane voltage held at −40 mV. To establish constitutive activity of recombinant receptors when compared to wild type receptors, we used the oocyte recording solution described above, but with 90 mM N-methyl-D-glucamine (NMDG) chloride replacing 90 mM NaCl. […] For Ca^2+ concentration-response curves, choline chloride was used to maintain equimolar concentrations of Cl^− ions in the extracellular solution across the changing concentrations of calcium chloride. All compounds used in this study for concentration-response oocyte recordings were dissolved in deionized water as 50–100 mM stock solutions. In some rescue pharmacology experiments, we substituted 1 mM CaCl2 for 0.5 mM BaCl2 to evaluate Ca^2+-dependent control of receptor responses.
Data are represented as mean ± SEM. Statistical significance of logEC50 or logIC50 was determined by one-way analysis of variance (ANOVA) with a Dunnett’s multiple comparisons post-hoc test with a significance threshold of P < 0.05. Sample sizes were adjusted so that the power to detect an effect size of 1 was > 0.9 (GPower 3.1). All error bars on figures represent the SEM.

| Compound | Effect on constitutive current, in words | EC50 (modulation of constitutive current, inhibited by Ca2+ (not potentiated), read-out: Ca2+ EC50 [95% CI]) [mM] | Ca2+ % Max (NMDG+ − Na+) Mean ± SEM (normalized to NMDG+ − Na+ difference current) | D-serine % Max (NMDG+ − Na+) Mean ± SEM (percent of constitutive leak current (NMDG+/Na+ difference current)) |
| --- | --- | --- | --- | --- |
| [Ca+2] [Ca^2+] | weakly inhibited; also recorded: complete loss of Ca^2+ potentiation | 5.6 | 70 ± 2.0 (15) % | – |
| N[C@H](CO)C(=O)O [D-serine] | modestly reduced D-serine potency | – | – | 60 ± 2.2 (15) % |

From article PMC10840383, “Clinical features, functional consequences, and rescue pharmacology of missense GRID1 and GRID2 human variants” (Human Molecular Genetics, 2023)
